Experimental data as given in patent US20210122730A1, “GLUCOCORTICOID RECEPTOR MODULATORS” (ORIC Pharmaceuticals, Inc., priority 2017, published 2021).

Target: T1, GR (Homo sapiens, UniProt P04150)
T1 construct: expressed in transfected cells; host or cells: CHO-K1
T1 sequence (P04150 1-777): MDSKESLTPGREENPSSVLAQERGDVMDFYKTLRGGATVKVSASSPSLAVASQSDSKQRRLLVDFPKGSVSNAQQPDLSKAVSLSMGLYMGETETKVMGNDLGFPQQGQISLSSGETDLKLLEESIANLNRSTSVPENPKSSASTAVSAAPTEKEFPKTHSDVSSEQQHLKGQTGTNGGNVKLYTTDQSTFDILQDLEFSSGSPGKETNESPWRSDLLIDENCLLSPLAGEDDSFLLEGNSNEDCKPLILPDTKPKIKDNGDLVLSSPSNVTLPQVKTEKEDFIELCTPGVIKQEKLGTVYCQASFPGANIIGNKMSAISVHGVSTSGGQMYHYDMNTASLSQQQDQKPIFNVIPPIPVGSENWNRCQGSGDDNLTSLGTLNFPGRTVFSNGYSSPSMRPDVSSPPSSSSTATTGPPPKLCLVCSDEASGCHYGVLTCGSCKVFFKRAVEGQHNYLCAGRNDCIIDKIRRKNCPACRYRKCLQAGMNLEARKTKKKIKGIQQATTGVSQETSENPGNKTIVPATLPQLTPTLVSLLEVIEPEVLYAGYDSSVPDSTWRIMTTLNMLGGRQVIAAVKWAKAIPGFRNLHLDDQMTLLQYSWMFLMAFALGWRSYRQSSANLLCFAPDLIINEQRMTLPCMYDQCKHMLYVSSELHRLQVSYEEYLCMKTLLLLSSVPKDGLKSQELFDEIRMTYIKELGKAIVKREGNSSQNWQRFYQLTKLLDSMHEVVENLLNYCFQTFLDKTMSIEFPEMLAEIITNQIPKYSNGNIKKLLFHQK
Test: In Vitro GR Luciferase Reporter Assay (antagonist mode, CHO-K1-GR-MMTV-Luc reporter cells)
Assay type: cell-based
Settings: antagonist mode, 10 nM Dexamethasone
Outline: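 Antagonist mode: compounds (8 serial 1:5 dilutions) added to GR-MMTV-luciferase CHO-K1 reporter cells co-exposed to 10 nM dexamethasone final, in phenol red-free DMEM plus 10% CSS. After roughly 18-24 h at 37° C, OneGlo luminescence read and IC50 calculated.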

| IC50 [nM] | SMILES |
| --- | --- |
| ≤ 100 | CCn1cc(S(=O)(=O)N(C2CC2)[C@H]2CCC3=Cc4c(cnn4-c4ccc(F)cc4)C[C@]3(C(=O)c3cc(C(F)(F)F)ccn3)C2)cn1 [Example 158, N-cyclopropyl-1-ethyl-N-((4aS,6S)-1-(4-fluorophenyl)-4a-(4-(trifluoromethyl)picolinoyl)-4,4a,5,6,7,8-hexahydro-1H-benzo[f]indazol-6-yl)-1H-pyrazole-4-sulfonamide] |
| ≤ 100 | O=C(c1nccs1)[C@]12Cc3cnn(-c4ccc(F)cc4)c3C=C1CC[C@H](N(C1CC1)S(=O)(=O)c1ccc(F)cc1)C2 [Example 159, N-cyclopropyl-4-fluoro-N-((4aS,6S)-1-(4-fluorophenyl)-4a-(thiazole-2-carbonyl)-4,4a,5,6,7,8-hexahydro-1H-benzo[f]indazol-6-yl)benzenesulfonamide] |
| ≤ 100 | CN([C@H]1CCC2=Cc3c(cnn3-c3ccc(F)cc3)C[C@]2(C(=O)c2nccs2)C1)S(=O)(=O)c1cnn(C)n1 [Example 161, N-((4aS,6S)-1-(4-fluorophenyl)-4a-(thiazole-2-carbonyl)-4,4a,5,6,7,8-hexahydro-1H-benzo[f]indazol-6-yl)-N,2-dimethyl-2H-1,2,3-triazole-4-sulfonamide] |
| ≤ 100 | CN([C@H]1CCC2=Cc3c(cnn3-c3ccc(F)cc3)C[C@]2(C(=O)c2nccs2)C1)S(=O)(=O)c1cnn(C2CC2)n1 [Example 162, 2-cyclopropyl-N-((4aS,6S)-1-(4-fluorophenyl)-4a-(thiazole-2-carbonyl)-4,4a,5,6,7,8-hexahydro-1H-benzo[f]indazol-6-yl)-N-methyl-2H-1,2,3-triazole-4-sulfonamide] |
| ≤ 100 | CN([C@H]1CCC2=Cc3c(cnn3-c3ccc(F)cc3)C[C@]2(C(=O)c2cc(C(F)(F)F)ccn2)C1)S(=O)(=O)c1cn(C)cn1 [Example 163, N-((4aS,6S)-1-(4-fluorophenyl)-4a-(4-(trifluoromethyl)picolinoyl)-4,4a,5,6,7,8-hexahydro-1H-benzo[f]indazol-6-yl)-N,1-dimethyl-1H-imidazole-4-sulfonamide] |
| ≤ 100 | CCN([C@H]1CCC2=Cc3c(cnn3-c3ccc(F)cc3)C[C@]2(C(=O)c2nccs2)C1)S(=O)(=O)c1cnn(C(F)F)c1 [Example 165, 1-(difluoromethyl)-N-ethyl-N-((4aS,6S)-1-(4-fluorophenyl)-4a-(thiazole-2-carbonyl)-4,4a,5,6,7,8-hexahydro-1H-benzo[f]indazol-6-yl)-1H-pyrazole-4-sulfonamide] |
| ≤ 100 | CCN([C@H]1CCC2=Cc3c(cnn3-c3ccc(F)cc3)C[C@]2(C(=O)c2nccs2)C1)S(=O)(=O)c1ccn(C)n1 [Example 167, N-ethyl-N-((4aS,6S)-1-(4-fluorophenyl)-4a-(thiazole-2-carbonyl)-4,4a,5,6,7,8-hexahydro-1H-benzo[f]indazol-6-yl)-1-methyl-1H-pyrazole-3-sulfonamide] |
| ≤ 100 | Cn1cc(S(=O)(=O)N(C2CC2)[C@H]2CCC3=Cc4c(cnn4-c4ccc(F)cc4)C[C@]3(C(=O)c3nccs3)C2)cn1 [Example 168, N-cyclopropyl-N-((4aS,6S)-1-(4-fluorophenyl)-4a-(thiazole-2-carbonyl)-4,4a,5,6,7,8-hexahydro-1H-benzo[f]indazol-6-yl)-1-methyl-1H-pyrazole-4-sulfonamide] |
| ≤ 100 | CN([C@H]1CCC2=Cc3c(cnn3-c3ccc(F)cc3)C[C@]2(C(=O)c2cc(C(F)(F)F)ccn2)C1)S(=O)(=O)c1cnnn1C [Example 169, N-((4aS,6S)-1-(4-fluorophenyl)-4a-(4-(trifluoromethyl)picolinoyl)-4,4a,5,6,7,8-hexahydro-1H-benzo[f]indazol-6-yl)-N,1-dimethyl-1H-1,2,3-triazole-5-sulfonamide] |
| ≤ 100 | Cn1cc(S(=O)(=O)N(C2CC2)[C@H]2CCC3=Cc4c(cnn4-c4ccc(F)cc4)C[C@]3(C(=O)c3ncc(C4CC4)s3)C2)cn1 [Example 171, N-cyclopropyl-N-((4aS,6S)-4a-(5-cyclopropylthiazole-2-carbonyl)-1-(4-fluorophenyl)-4,4a,5,6,7,8-hexahydro-1H-benzo[f]indazol-6-yl)-1-methyl-1H-pyrazole-4-sulfonamide] |
| ≤ 100 | Cn1ccc(S(=O)(=O)N(CC2CC2)[C@H]2CCC3=Cc4c(cnn4-c4ccc(F)cc4)C[C@]3(C(=O)c3nccs3)C2)n1 [Example 172, N-(cyclopropylmethyl)-N-((4aS,6S)-1-(4-fluorophenyl)-4a-(thiazole-2-carbonyl)-4,4a,5,6,7,8-hexahydro-1H-benzo[f]indazol-6-yl)-1-methyl-1H-pyrazole-3-sulfonamide] |
| ≤ 100 | Cn1ncc(S(=O)(=O)N(C2CC2)[C@H]2CCC3=Cc4c(cnn4-c4ccc(F)cc4)C[C@]3(C(=O)c3nccs3)C2)n1 [Example 173, N-cyclopropyl-N-((4aS,6S)-1-(4-fluorophenyl)-4a-(thiazole-2-carbonyl)-4,4a,5,6,7,8-hexahydro-1H-benzo[f]indazol-6-yl)-2-methyl-2H-1,2,3-triazole-4-sulfonamide] |
| ≤ 100 | Cn1ncc(S(=O)(=O)N(C2CC2)[C@H]2CCC3=Cc4c(cnn4-c4ccc(F)cc4)C[C@]3(C(=O)c3ncc(C4CC4)s3)C2)n1 [Example 174, N-cyclopropyl-N-((4aS,6S)-4a-(5-cyclopropylthiazole-2-carbonyl)-1-(4-fluorophenyl)-4,4a,5,6,7,8-hexahydro-1H-benzo[f]indazol-6-yl)-2-methyl-2H-1,2,3-triazole-4-sulfonamide] |
| ≤ 100 | CCN([C@H]1CCC2=Cc3c(cnn3-c3ccc(F)cc3)C[C@]2(C(=O)c2ncc(C3CC3)s2)C1)S(=O)(=O)c1ccn(C)n1 [Example 175, N-((4aS,6S)-4a-(5-cyclopropylthiazole-2-carbonyl)-1-(4-fluorophenyl)-4,4a,5,6,7,8-hexahydro-1H-benzo[f]indazol-6-yl)-N-ethyl-1-methyl-1H-pyrazole-3-sulfonamide] |
| ≤ 100 | O=C(c1ncc(C(F)(F)F)s1)[C@]12Cc3cnn(-c4ccc(F)cc4)c3C=C1CC[C@H](N(C1CC1)S(=O)(=O)c1cnn(C(F)F)c1)C2 [Example 180, N-cyclopropyl-1-(difluoromethyl)-N-((4aS,6S)-1-(4-fluorophenyl)-4a-(5-(trifluoromethyl)thiazole-2-carbonyl)-4,4a,5,6,7,8-hexahydro-1H-benzo[f]indazol-6-yl)-1H-pyrazole-4-sulfonamide] |
| ≤ 100 | Cn1cc(S(=O)(=O)N(CC2CC2)[C@H]2CCC3=Cc4c(cnn4-c4ccc(F)cc4)C[C@]3(C(=O)c3ncc(C(F)(F)F)s3)C2)cn1 [Example 181, N-(cyclopropylmethyl)-N-((4aS,6S)-1-(4-fluorophenyl)-4a-(5-(trifluoromethyl)thiazole-2-carbonyl)-4,4a,5,6,7,8-hexahydro-1H-benzo[f]indazol-6-yl)-1-methyl-1H-pyrazole-4-sulfonamide] |
| ≤ 100 | CC(C)N([C@H]1CCC2=Cc3c(cnn3-c3ccc(F)cc3)C[C@]2(C(=O)c2ncc(C3CC3)s2)C1)S(=O)(=O)c1ccn(C)n1 [Example 185, N-((4aS,6S)-4a-(5-cyclopropylthiazole-2-carbonyl)-1-(4-fluorophenyl)-4,4a,5,6,7,8-hexahydro-1H-benzo[f]indazol-6-yl)-N-isopropyl-1-methyl-1H-pyrazole-3-sulfonamide] |
| ≤ 100 | Cn1ccc(S(=O)(=O)N(CC2CC2)[C@H]2CCC3=Cc4c(cnn4-c4ccc(F)cc4)C[C@]3(C(=O)c3ncc(C4CC4)s3)C2)n1 [Example 187, N-(cyclopropylmethyl)-N-((4aS,6S)-4a-(5-cyclopropylthiazole-2-carbonyl)-1-(4-fluorophenyl)-4,4a,5,6,7,8-hexahydro-1H-benzo[f]indazol-6-yl)-1-methyl-1H-pyrazole-3-sulfonamide] |
| ≤ 100 | Cn1cc(C(=O)N(C2CC2)[C@H]2CCC3=Cc4c(cnn4-c4ccc(F)cc4)C[C@]3(C(=O)c3ncc(C(F)(F)F)s3)C2)cn1 [Example 188, N-cyclopropyl-N-((4aS,6S)-1-(4-fluorophenyl)-4a-(5 (trifluoromethyl)thiazole-2-carbonyl)-4,4a,5,6,7,8-hexahydro-1H-benzo[f]indazol-6-yl)-1-methyl-1H-pyrazole-4-carboxamide] |
| ≤ 100 | Cn1cc(S(=O)(=O)[C@H]2CCC3=Cc4c(cnn4-c4ccc(F)cc4)C[C@]3(C(=O)c3ncc(C(F)(F)F)s3)C2)cn1 [Example 190, ((4aS,6S)-1-(4-fluorophenyl)-6-((1-methyl-1H-pyrazol-4-yl)sulfonyl)-1,4,5,6,7,8-hexahydro-4aH-benzo[f]indazol-4a-yl)(5-(trifluoromethyl)thiazol-2-yl)methanone] |
| ≤ 100 | CC(C)N([C@H]1CCC2=Cc3c(cnn3-c3ccc(F)cc3)C[C@]2(C(=O)c2ncc(C3CC3)s2)C1)S(=O)(=O)c1cnn(C)c1 [Example 192, N-((4aS,6S)-4a-(5-cyclopropylthiazole-2-carbonyl)-1-(4-fluorophenyl)-4,4a,5,6,7,8-hexahydro-1H-benzo[f]indazol-6-yl)-N-isopropyl-1-methyl-1H-pyrazole-4-sulfonamide] |
